Entries after “also recorded” stand apart in the source; their conditions may differ. Like-named read-outs stand apart in the source and are kept apart here.
Experiments:
[1] = tested on: Aβ40 and Aβ42 production, CHO cells stably transfected with human APP695; experiment: Secreted Aβ40/Aβ42 ELISA in CHO cells expressing human APP (CHO-APP cells); type: cell-based, Chinese hamster; parameters: key to Aβ42-lowering activity: Aβ42-lowering activity (“Yes”); no profound effects (“No”); non-determined (“ND”); Ginsenosides that affected cell viability are indicated as “Cytotoxic.”; conditions: for Aβ42-lowering activity: summary of Tables 1-3; for preference for Aβ42 vs. Aβ40 in cell-based assay: FIG. 6 / FIG. 12B; for production of Aβ42 in cells: general statement
Protocol: The CHO cells were treated with the indicated compounds (at 50 μg/ml) for 8 hrs. Aβ42 levels in the medium were measured by ELISA and normalized to intracellular full-length APP.
The potential effects of ginsenosides and their analogues in treating AD were examined. First, a number of ginsenosides were screened based on their effects on Aβ generation. The effects of various ginsenosides on Aβ (e.g., Aβ40 and Aβ42) production was initially accessed by incubating the Chinese hamster ovary (CHO) cells expressing human APP(CHO-APP cells) with each ginsenoside purified from unprocessed ginseng (known as “white ginseng”). These representative ginsenosides included Rb1, Rb2, Rc, Rd, Re, Re, Rg1 and Rg2 and differ in their side chains and sugar moieties.
After 8 hours of incubation, the media were collected and the levels of secreted Aβ40 and Aβ42 were determined by ELISA.

[2] = tested on: cell viability; experiment: Cell viability of treated cells; type: cell-based; parameters: key to affected cell viability (Cytotoxic): Aβ42-lowering activity (“Yes”); no profound effects (“No”); non-determined (“ND”); Ginsenosides that affected cell viability are indicated as “Cytotoxic.”
Protocol: (§1) CHO-APP/PS1 (A) and CHO-APP/ΔE9PS1 (B) cells were treated with the indicated compounds at 50 μM for 8 hrs and the levels of secreted Aβ40 and Aβ42 were determined as described in FIG. 1. […] The PS1-ΔE9 FAD mutation diminished the Aβ42 response to Rk1 treatment (B).
Tables 1-3 Structure of ginsenosides utilized in the study and their effects on Aβ42 generation. They differ at the two or three side chains attached to the common triterpene backbone known as dammarane. The common structure skeleton for each group of ginsenosides is shown in the top panel. Ginsenosides that harbor Aβ42-lowering activity are indicated in the far right column of the tables: Aβ42-lowering activity (“Yes”), no profound effects (“No”), and non-determined (“ND”). Ginsenosides that affected cell viability are indicated as “Cytotoxic.” Abbreviation for carbohydrates are as follows: Glc, D-glucopyranosyl; Ara (pyr), L-arabinopyranosyl; Ara (fur), L-arabinofuranyosyl; Rha, L-rhamnopyranosyl.
Steaming ginseng at high temperature gave rise to additional ginsenosides with enhanced pharmacological activity, including (20S)Rg3, Rk1 and Rg5 (22-25). […] Aβ40 levels were not changed by treatment with any of the ginsenosides tested. The potency of Aβ42-lowering activity was highest with Rk1 and (20S)Rg3. […] These studies provide a structure-activity relationship between the chemical structures of ginsenosides and Aβ42-lowering activity, further providing the basis for designing additional Aβ42-lowering analogues as well as for defining a class of compounds that harbor Aβ42-lowering activity.

[3] = tested on: Aβ40 and Aβ42 production, CHO-APP/PS1 cells; experiment: Secreted Aβ ELISA in CHO-APP/PS1 cells (wild-type PS1); type: cell-based, Chinese hamster; conditions: for secretion of Aβ42: heat-processing derived ginsenosides; for secretion of Aβ42 / potency of Aβ42-reducing activity (rank): 50 μM, 8 hrs, FIG. 11
Protocol: (§2) The effects of Rg5 on the Aβ42 generation were much smaller as compared to Rgk351 and Rk1.
(§3) FIG. 10 depicts the effects of native ginsenosides on Aβ42 production. CHO cells stably transfected with human APP695 together with either wild-type (A, CHO-APP/PS1 cells) or ΔE9 FAD mutant (B, CHO-APP/ΔE9PS1 cells) forms of PS1 were used. Cells were treated with the indicated compounds (at 50 μM) for 8 hrs. Levels of secreted Aβ40 and Aβ42 in the medium were determined by ELISA and normalized to intracellular full-length APP. In CHO-APP/PS1 cells, average Aβ amounts in control samples were 320 pM for Aβ40 and 79 pM for Aβ42. The relative levels of Aβ and Aβ42 were normalized to values obtained from non-treated and vehicle-treated cells and are shown as % to control+s.d.). One of three representative experiments are shown.
as §1

[4] = tested on: full-length APP and APP C-terminal fragments, Neuro2a-APPsw cells; experiment: Western blot analysis of APP processing in neuro2a cells expressing APPsw; type: cell-based, mouse; conditions: neuro2a cells expressing APPsw
Text: (§4) FIG. 13. depicts an analysis of APP processing after Rk1 treatment. Steady-state levels of full-length APP and APP C-terminal fragments (APP-CTFs) were examined by Western blot analysis using anti-R1 antibody. […] Correlated Aβ42 levels for each sample are shown in the bottom panel.

[5] = tested on: Aβ42 production in mammalian cells; conditions: Tae-Wan Kim et al., patent application pending; cited from earlier work
[6] = tested on: Aβ42 production, CHO-APP/ΔE9PS1 cells; experiment: Secreted Aβ ELISA in CHO cells co-expressing human APP and FAD mutant PS1 (ΔE9, L286V); type: cell-based, Chinese hamster; conditions: 50 μM, 8 hrs, FIG. 11B vs 11A
Protocol: as §2, §3, §1

[7] = tested on: full-length APP and APP C-terminal fragments, CHO-APP cells; experiment: Western blot analysis of APP processing in CHO-APP cells; type: cell-based, Chinese hamster; conditions: cell lysates
Text: as §4

[8] = target: γ-secretase (Homo sapiens, UniProt P49768); experiment: Cell-free γ-secretase assay (CHAPSO-solubilized membrane fractions, recombinant substrates, Aβ ELISA); type: biochemical
Protocol: (A) CHAPSO-solubilized membrane fractions were incubated with recombinant γ-secretase substrates together with the indicated compounds (at 100 μM) and the levels of Aβ42 and Aβ40 were determined by ELISA as described (27-29). (B) Dose-response of Aβ40 and Aβ42-lowering activity of Rk1 and (20S)Rg3 in a cell-free γ-secretase assay.
Next, the inhibitory effects of Rk1 and (20S)Rg3 on Aβ generation in an in vitro γ-secretase assay was studied. […] In contrast, naproxen, an NSAID without Aβ42-lowering activity, had no effects on Aβ42 production (FIG. 15A).

[9] = tested on: Aβ species, CHO-APP cells; experiment: Mass spectrometric analysis of Aβ species produced from CHO-APP cells; type: cell-based, Chinese hamster; conditions: mass spectrometry, vs DMSO
Protocol: Note that treatment leads to a decrease in Aβ42 species (1-42), and elevation in both Aβ37 (1-37) and Aβ38 (1-38). Mass spectrometric analysis of Aβ species were performed as previously described (Wang R, Sweeny D, Gandy S E, Sisodia S S. The profile of soluble amyloid β-protein in cultured cell media. J. Bio. Chem. 1996; 271: 31894-31902).

[10] = tested on: Aβ40 and Aβ42 secretion, primary embryonic cortical neurons; experiment: Aβ secretion in primary embryonic cortical neurons derived from Tg2576 transgenic mice; type: cell-based, mouse
Text: Treatment of Rk1 and Rg3 decreased the level of secreted Aβ40 and Aβ42.

In the case of `CC(C)=CCC[C@](C)(O)[C@H]1CC[C@]2(C)[C@@H]1[C@H](O)C[C@@H]1[C@@]3(C)CC[C@H](O[C@@H]4O[C@H](CO)[C@@H](O)[C@H](O)[C@H]4O)C(C)(C)[C@@H]3CC[C@]12C` [Rh2], the Aβ42-lowering activity [1] is reported as “Yes”, the cell viability ([2]; 50 μM treatment) is reported as “partially affected” and the “affected cell viability (Cytotoxic)” value ([2]; summary of Tables 1-3) is reported as “Cytotoxic”. For the same molecule, the “secretion of Aβ42” value [3] was “exhibited Aβ42-lowering effects”.
In the case of `CC(C)=CC/C=C(\C)[C@H]1CC[C@]2(C)[C@@H]1[C@H](O)C[C@@H]1[C@@]3(C)CC[C@H](O[C@@H]4O[C@H](CO)[C@@H](O)[C@H](O)[C@H]4O[C@@H]4O[C@H](CO)[C@@H](O)[C@H](O)[C@H]4O)C(C)(C)[C@@H]3CC[C@]12C` [Rg5], the “generation of Aβ42 (Aβ42 levels in the medium, ELISA, normalized to intracellular full-length APP)” value ([1]; 50 μg/ml, 8 hrs, FIG. 4) is reported as “reduce the generation of Aβ42”, the “Aβ42-lowering effect compared with other agents” value ([1]; CHO-APP cells) is reported as “much smaller” and the “preference for Aβ42 vs. Aβ40 in cell-based assay” value [1] is reported as “preferentially reduced Aβ42 (vs. Aβ40)”. For the same molecule, the “Aβ42 in the medium, dose-response” value ([1]; dose-dependent, FIG. 5 / FIG. 12A) was “reduced Aβ42; also recorded: lower Aβ42 in a dose-dependent manner”, the “production of Aβ42 in cells” value [1] was “lower the production of Aβ42” and the Aβ42 production ([1]; overnight treatment, FIG. 12B) was “reduce Aβ42 production”. The Aβ42-lowering activity [1] was “Yes”, the “APP C-terminal fragments, steady-state levels” value [4] was “increased accumulation” and the “production of Aβ42 in mammalian cells” value [5] was “lower the production of Aβ42”. The “potency of Aβ42-reducing activity (rank)” value [3] was “Rk1>/=(20S)Rg3>Rg5>(20R)Rg3; also recorded: less effective”, the “secretion of Aβ42” value [3] was “selectively lowered the secretion of Aβ42” and the “effects on Aβ42 generation compared to Rgk351 and Rk1” value ([3]; wild-type or FAD mutant presenilin 1, FIG. 8) was “much smaller”. The “Aβ42-lowering response in PS1 ΔE9 FAD mutant cells compared to PS1 wild-type cells” value [6] was “diminished”, the “APP C-terminal fragments (γ-secretase substrates), steady-state levels” value [7] was “increased accumulation” and the “full-length APP levels” value [7] was “not affected”.
For `CC(C)=CCCC(C)(O)C1CCC2(C)C1C(O)CC1C3(C)CCC(OC4OC(CO)C(O)C(O)C4OC4OC(CO)C(O)C(O)C4O)C(C)(C)C3CCC12C` [(20S)Rg3], the “preference for Aβ42 vs. Aβ40 in cell-based assay” value [1] was “primarily affect Aβ42 production”, the “production of Aβ42 in cells” value [1] was “lower the production of Aβ42” and the “Aβ generation in a cell-free γ-secretase assay” value ([8]; FIG. 15) was “inhibits Aβ generation”. The “Aβ42 generation in vitro” value ([8]; cell-free γ-secretase assay, FIG. 15 (100 μM in A)) was “inhibited both Aβ40 and Aβ42 with a similar potency”, the “Aβ40 generation in vitro” value ([8]; cell-free γ-secretase assay, FIG. 15B) was “inhibited both Aβ40 and Aβ42 with a similar potency” and the IC50 ([8]; cell-free γ-secretase assay, FIG. 15B, read-out: IC50 for Aβ40) was 27 ± 4 µM. The IC50 ([8]; cell-free γ-secretase assay, FIG. 15B, read-out: IC50 for Aβ42) was 26 ± 7 µM, the “Aβ37 (1-37)” value [9] was “elevation” and the “Aβ38 (1-38)” value [9] was “elevation”. The “Aβ42 species (1-42)” value [9] was “decrease”, the “production of Aβ42 in mammalian cells” value [5] was “lower the production of Aβ42” and the “potency of Aβ42-reducing activity (rank)” value [3] was “Rk1>/=(20S)Rg3>Rg5>(20R)Rg3; also recorded: highest”. The “secretion of Aβ42” value [3] was “selectively lowered the secretion of Aβ42”, the “level of secreted Aβ40” value [10] was “decreased” and the “level of secreted Aβ42” value [10] was “decreased”. For the same molecule, the “Aβ42-lowering response in PS1 ΔE9 FAD mutant cells compared to PS1 wild-type cells” value [6] was “diminished”.

— patent publication US20060014704A1, “Compounds and their preparation for the treatment of Alzheimer's disease by inhibiting beta-amyloid peptide production” (priority 2004, published 2006)
